Source: patent publication US20240109918A1, “HETEROCYCLIC COMPOUNDS AND USES THEREOF” (Kumquat Biosciences Inc., priority 2022, published 2024)

Target: T1, KRASG12D (Homo sapiens, UniProt P01116, G12D)
T1 construct: made in house; host or cells: E. coli BL21 (DE3)
Assay: Bio-Biochem-PPI-HTRF Ras-SOS1 interaction assay (KRAS G12D)
Format: biochemical
Details: 5 nM
Protocol: (§1) The assay buffer can contain −5 mM HEPES pH 7.4, ˜150 mM NaCl, ˜ 1 mM DTT, 0.05% BSA and 0.0025% (v/v) Igepal. A Ras working solution is prepared in an assay buffer containing typically a suitable amount of the protein construct (e.g., GST-tagged K-Ras mutant) and the FRET donor (e.g., antiGST-Eu(K) from Cisbio, France). A SOS1 working solution is prepared in an assay buffer containing suitable amount of the protein construct (e.g., His-hSOS1) and the FRET acceptor (e.g., anti-6His-XL665 from Cisbio, France). A suitable amount of the protein construct will depend on the range of activity or range of IC50 values being detected or under investigation. For detecting IC50 within a range of 500 nM, the protein constructs of the same range of molarity can be utilized. […] A fixed volume of DMSO with or without test compound is transferred into a 384-well plate. Ras working solution is added to all wells of the test plate. SOS1 working solution is added to all wells except for those that are subsequently filled the inhibitor control solution. Upon incubation for about 10 minutes or longer, the fluorescence is measured with a M1000Pro plate reader (Tecan) using HTRF detection (excitation 337 nm, emission 1:620 nm, emission 2: 665 nm). Compounds are tested in duplicates at different concentrations (for example, 10 μM, 2.5 μM, 0.63 μM, 0.16 μM, 0.04 μM, 0.01 μM test compound). The ratiometric data (i.e., emission 2 divided by emission 1) is used to calculate IC50 values against Ras using GraphPad Prism (GraphPad software). Following this general procedure, samples were tested with or without a subject compound disclosed herein including compounds exemplified in Table 1 to assess their abilities to inhibit a mutant K-Ras relative to another mutant K-Ras or wildtype K-Ras. Signaling output measured in terms of IC50 values can be obtained, a ratio of IC50 against one mutant relative to another mutant can be calculated. For instance, a selective reduction of K-Ras G12D signaling output can be evidenced by a ratio greater than one. In particular, a selective reduction of K-Ras G12D signaling relative to K-Ras WT signaling is evidenced as the ratio of IC50 (against K-Ras WT) to IC50 (against K-Ras G12D) is greater than 1.

T1 sequence (P01116 1-188 isoform P01116-2 G12D): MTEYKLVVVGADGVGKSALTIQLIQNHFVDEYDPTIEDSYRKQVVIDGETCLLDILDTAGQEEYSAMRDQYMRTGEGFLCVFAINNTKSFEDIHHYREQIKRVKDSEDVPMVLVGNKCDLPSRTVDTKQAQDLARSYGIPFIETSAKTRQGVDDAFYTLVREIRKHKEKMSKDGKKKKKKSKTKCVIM

SMILES | IC50
N#Cc1c(N)sc2c(F)ccc(-c3c(Cl)cc4c(N5CCC6(CN(C(=O)C7CC7(F)F)C6)C5)nc(OC[C@@]56CCCN5C[C@H](F)C6)nc4c3F)c12 (stereo partly drawn) [compound 143, 2-amino-4-(6-chloro-4-(2-(2,2-difluorocyclopropane-1-carbonyl)-2,6-diazaspiro[3.4]octan-6-yl)-8-fluoro-2-(((2R,7aS)-2-fluorotetrahydro-1H-pyrrolizin-7a(5H)-yl)methoxy)quinazolin-7-yl)-7-fluorobenzo[b]thiophene-3-carbonitrile] | < 5 µM
N#Cc1c(N)sc2c(F)ccc(-c3c(Cl)cc4c(N5CCCCC6(CN(C(=O)N7CC(F)(F)C7)C6)C5)nc(OC[C@@]56CCCN5C[C@H](F)C6)nc4c3F)c12 [compound 307, 2-amino-4-(6-chloro-4-(2-(3,3-difluoroazetidine-1-carbonyl)-2,6-diazaspiro[3.6]decan-6-yl)-8-fluoro-2-(((2R,7aS)-2-fluorotetrahydro-1H-pyrrolizin-7a(5H)-yl)methoxy)quinazolin-7-yl)-7-fluorobenzo[b]thiophene-3-carbonitrile] | < 5 µM
N#Cc1c(N)sc2c(F)ccc(-c3c(Cl)cc4c(N5CCCCC6(CN(C(=O)C7CC7)C6)C5)nc(OC[C@@]56CCCN5C[C@H](F)C6)nc4c3F)c12 [compound 281, 2-amino-4-(6-chloro-4-(2-(cyclopropanecarbonyl)-2,6-diazaspiro[3.6]decan-6-yl)-8-fluoro-2-(((2R,7aS)-2-fluorotetrahydro-1H-pyrrolizin-7a(5H)-yl)methoxy)quinazolin-7-yl)-7-fluorobenzo[b]thiophene-3-carbonitrile] | < 5 µM
N#Cc1c(N)sc2c(F)ccc(-c3c(Cl)cc4c(N5CCCCC6(CN(C(=O)NC7(C(F)(F)F)CC7)C6)C5)nc(OC[C@@]56CCCN5C[C@H](F)C6)nc4c3F)c12 [compound 315, 6-(7-(2-amino-3-cyano-7-fluorobenzo[b]thiophen-4-yl)-6-chloro-8-fluoro-2-(((2R,7aS)-2-fluorotetrahydro-1H-pyrrolizin-7a(5H)-yl)methoxy)quinazolin-4-yl)-N-(1-(trifluoromethyl)cyclopropyl)-2,6-diazaspiro[3.6]decane-2-carboxamide] | < 5 µM
N#Cc1c(N)sc2c(F)ccc(-c3c(Cl)cc4c(N5CCCCC6(CN(C(=O)C7CC78CCOC8)C6)C5)nc(OC[C@@]56CCCN5C[C@H](F)C6)nc4c3F)c12 (stereo partly drawn) [compound 310, 4-(4-(2-(5-oxaspiro[2.4]heptane-1-carbonyl)-2,6-diazaspiro[3.6]decan-6-yl)-6-chloro-8-fluoro-2-(((2R,7aS)-2-fluorotetrahydro-1H-pyrrolizin-7a(5H)-yl)methoxy)quinazolin-7-yl)-2-amino-7-fluorobenzo [b]thiophene-3-carbonitrile] | < 5 µM
N#Cc1c(N)sc2c(F)ccc(-c3c(Cl)cc4c(N5CCCCC6(CN(C(=O)C78CC(C#N)(C7)C8)C6)C5)nc(OC[C@@]56CCCN5C[C@H](F)C6)nc4c3F)c12 [compound 321, 2-amino-4-(6-chloro-4-(2-(3-cyanobicyclo[1.1.1]pentane-1-carbonyl)-2,6-diazaspiro[3.6]decan-6-yl)-8-fluoro-2-(((2R,7aS)-2-fluorotetrahydro-1H-pyrrolizin-7a(5H)-yl)methoxy)quinazolin-7-yl)-7-fluorobenzo[b]thiophene-3-carbonitrile] | < 5 µM
N#Cc1c(N)sc2c(F)ccc(-c3c(Cl)cc4c(N5CCCCC6(CN(C(=O)C7CC(C#N)C7)C6)C5)nc(OC[C@@]56CCCN5C[C@H](F)C6)nc4c3F)c12 (stereo partly drawn) [compound 295, 2-amino-4-(6-chloro-4-(2-(3-cyanocyclobutane-1-carbonyl)-2,6-diazaspiro[3.6]decan-6-yl)-8-fluoro-2-(((2R,7aS)-2-fluorotetrahydro-1H-pyrrolizin-7a(5H)-yl)methoxy)quinazolin-7-yl)-7-fluorobenzo[b]thiophene-3-carbonitrile] | < 5 µM
N#Cc1c(N)sc2c(F)ccc(-c3c(Cl)cc4c(N5CCCCC6(CN(C(=O)N7CC[C@H]7C#N)C6)C5)nc(OC[C@@]56CCCN5C[C@H](F)C6)nc4c3F)c12 [compound 264, (2S)-1-(6-(7-(2-amino-3-cyano-7-fluorobenzo[b]thiophen-4-yl)-6-chloro-8-fluoro-2-(((2R,7aS)-2-fluorotetrahydro-1H-pyrrolizin-7a(5H)-yl)methoxy)quinazolin-4-yl)-2,6-diazaspiro[3.6]decane-2-carbonyl)azetidine-2-carbonitrile] | < 5 µM
N#Cc1c(N)sc2c(F)ccc(-c3c(Cl)cc4c(N5CCCCC6(CN(C(=O)CC7CC7(F)F)C6)C5)nc(OC[C@@]56CCCN5C[C@H](F)C6)nc4c3F)c12 (stereo partly drawn) [compound 331, 2-amino-4-(6-chloro-4-(2-(2-(2,2-difluorocyclopropyl)acetyl)-2,6-diazaspiro[3.6]decan-6-yl)-8-fluoro-2-(((2R,7aS)-2-fluorotetrahydro-1H-pyrrolizin-7a(5H)-yl)methoxy)quinazolin-7-yl)-7-fluorobenzo[b]thiophene-3-carbonitrile] | < 5 µM
CN1CCC[C@H]1COc1nc(N2CCOC3(CNC3)C2)c2cc(Cl)c(-c3ccc(F)c4sc(N)c(C#N)c34)c(F)c2n1 (single isomer, unassigned; atropisomer 2) [compound 121] | < 5 µM
N#Cc1c(N)sc2c(F)ccc(-c3c(Cl)cc4c(N5CCCCC6(CN(C(=O)CC7COC7)C6)C5)nc(OC[C@@]56CCCN5C[C@H](F)C6)nc4c3F)c12 [compound 297, 2-amino-4-(6-chloro-8-fluoro-2-(((2R,7aS)-2-fluorotetrahydro-1H-pyrrolizin-7a(5H)-yl)methoxy)-4-(2-(2-(oxetan-3-yl)acetyl)-2,6-diazaspiro[3.6]decan-6-yl)quinazolin-7-yl)-7-fluorobenzo[b]thiophene-3-carbonitrile] | < 5 µM
N#Cc1c(N)sc2c(F)ccc(-c3c(Cl)cc4c(N5CCCCC6(CN(C(=O)N7CC(C(F)F)C7)C6)C5)nc(OC[C@@]56CCCN5C[C@H](F)C6)nc4c3F)c12 [compound 262, 2-amino-4-(6-chloro-4-(2-(3-(difluoromethyl)azetidine-1-carbonyl)-2,6-diazaspiro[3.6]decan-6-yl)-8-fluoro-2-(((2R,7aS)-2-fluorotetrahydro-1H-pyrrolizin-7a(5H)-yl)methoxy)quinazolin-7-yl)-7-fluorobenzo[b]thiophene-3-carbonitrile] | < 5 µM
N#Cc1c(N)sc2c(F)ccc(-c3c(Cl)cc4c(N5CCCCC6(CN(C(=O)C(F)Cl)C6)C5)nc(OC[C@@]56CCCN5C[C@H](F)C6)nc4c3F)c12 (stereo partly drawn) [compound 291, 2-amino-4-(6-chloro-4-(2-(2-chloro-2-fluoroacetyl)-2,6-diazaspiro[3.6]decan-6-yl)-8-fluoro-2-(((2R,7aS)-2-fluorotetrahydro-1H-pyrrolizin-7a(5H)-yl)methoxy)quinazolin-7-yl)-7-fluorobenzo[b]thiophene-3-carbonitrile] | < 5 µM
N#Cc1c(N)sc2c(F)ccc(-c3c(Cl)cc4c(N5CCCCC6(CN(C(=O)C7C8COCC87)C6)C5)nc(OC[C@@]56CCCN5C[C@H](F)C6)nc4c3F)c12 (stereo partly drawn) [compound 299, 4-(4-(2-(3-oxabicyclo[3.1.0]hexane-6-carbonyl)-2,6-diazaspiro [3.6]decan-6-yl)-6-chloro-8-fluoro-2-(((2R,7aS)-2-fluorotetrahydro-1H-pyrrolizin-7a(5H)-yl)methoxy)quinazolin-7-yl)-2-amino-7-fluorobenzo[b]thiophene-3-carbonitrile] | < 5 µM

Target: T2, KRASwt (Homo sapiens, UniProt P01116)
T2 construct: made in house; host or cells: E. coli BL21 (DE3)
T2 sequence (P01116 1-188 isoform P01116-2): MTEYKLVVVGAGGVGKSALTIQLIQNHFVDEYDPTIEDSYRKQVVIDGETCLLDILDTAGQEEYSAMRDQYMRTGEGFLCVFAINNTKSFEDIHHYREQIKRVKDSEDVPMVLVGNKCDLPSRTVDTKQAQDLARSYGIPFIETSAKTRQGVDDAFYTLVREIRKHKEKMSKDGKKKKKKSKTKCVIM
Assay: Bio-Biochem-PPI-HTRF Ras-SOS1 interaction assay (KRAS wt)
Format: biochemical
Details: 5 nM
Protocol: as §1

SMILES | IC50
N#Cc1c(N)sc2c(F)ccc(-c3c(Cl)cc4c(N5CCC6(CN(C(=O)C7CC7(F)F)C6)C5)nc(OC[C@@]56CCCN5C[C@H](F)C6)nc4c3F)c12 (stereo partly drawn) [compound 143, 2-amino-4-(6-chloro-4-(2-(2,2-difluorocyclopropane-1-carbonyl)-2,6-diazaspiro[3.4]octan-6-yl)-8-fluoro-2-(((2R,7aS)-2-fluorotetrahydro-1H-pyrrolizin-7a(5H)-yl)methoxy)quinazolin-7-yl)-7-fluorobenzo[b]thiophene-3-carbonitrile] | < 5 µM
